Inhibition data for 2 compounds are collected here from ChEMBL document CHEMBL5653615 (J Biol Chem, 2013).

One may read the inhibition as the relative decrease from the control value, in per cent.

Each structure is given as a SMILES string.

Test [1] deals with Casein kinase I isoform alpha (Homo sapiens) (UniProt P48729). As to the kind of experiment: Inhibition of human CK1a1 at 18.6 nM by HotSpot assay relative to control.
Test [2] deals with T1, Tyrosine-protein kinase ZAP-70 (Homo sapiens) (UniProt P43403).
T1 sequence (whole entry): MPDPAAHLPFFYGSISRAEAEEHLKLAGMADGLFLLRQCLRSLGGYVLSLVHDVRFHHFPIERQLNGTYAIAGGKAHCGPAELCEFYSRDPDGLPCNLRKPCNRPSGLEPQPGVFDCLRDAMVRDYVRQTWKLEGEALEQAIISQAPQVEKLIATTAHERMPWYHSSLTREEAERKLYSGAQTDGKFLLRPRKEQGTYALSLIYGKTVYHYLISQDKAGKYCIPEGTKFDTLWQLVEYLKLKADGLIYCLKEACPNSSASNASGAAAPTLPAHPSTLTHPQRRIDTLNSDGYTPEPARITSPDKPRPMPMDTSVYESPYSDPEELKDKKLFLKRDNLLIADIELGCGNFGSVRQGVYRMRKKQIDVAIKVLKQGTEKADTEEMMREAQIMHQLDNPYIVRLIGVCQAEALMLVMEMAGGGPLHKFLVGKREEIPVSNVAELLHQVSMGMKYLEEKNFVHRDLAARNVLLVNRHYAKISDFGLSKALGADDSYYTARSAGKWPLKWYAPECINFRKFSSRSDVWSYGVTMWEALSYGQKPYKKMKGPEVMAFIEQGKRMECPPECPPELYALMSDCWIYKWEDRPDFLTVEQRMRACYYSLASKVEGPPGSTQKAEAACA
Nature of the test: Inhibition of human ZAP70 at 18.6 nM by HotSpot assay relative to control.

The target of test [3] is Ribosomal protein S6 kinase alpha-5 (Homo sapiens) (UniProt O75582). As to the kind of experiment: Inhibition of human RPS6KA5 at 18.6 nM by HotSpot assay relative to control.
Chain of Ribosomal protein S6 kinase alpha-5 (Homo sapiens) (O75582 whole entry, looked up): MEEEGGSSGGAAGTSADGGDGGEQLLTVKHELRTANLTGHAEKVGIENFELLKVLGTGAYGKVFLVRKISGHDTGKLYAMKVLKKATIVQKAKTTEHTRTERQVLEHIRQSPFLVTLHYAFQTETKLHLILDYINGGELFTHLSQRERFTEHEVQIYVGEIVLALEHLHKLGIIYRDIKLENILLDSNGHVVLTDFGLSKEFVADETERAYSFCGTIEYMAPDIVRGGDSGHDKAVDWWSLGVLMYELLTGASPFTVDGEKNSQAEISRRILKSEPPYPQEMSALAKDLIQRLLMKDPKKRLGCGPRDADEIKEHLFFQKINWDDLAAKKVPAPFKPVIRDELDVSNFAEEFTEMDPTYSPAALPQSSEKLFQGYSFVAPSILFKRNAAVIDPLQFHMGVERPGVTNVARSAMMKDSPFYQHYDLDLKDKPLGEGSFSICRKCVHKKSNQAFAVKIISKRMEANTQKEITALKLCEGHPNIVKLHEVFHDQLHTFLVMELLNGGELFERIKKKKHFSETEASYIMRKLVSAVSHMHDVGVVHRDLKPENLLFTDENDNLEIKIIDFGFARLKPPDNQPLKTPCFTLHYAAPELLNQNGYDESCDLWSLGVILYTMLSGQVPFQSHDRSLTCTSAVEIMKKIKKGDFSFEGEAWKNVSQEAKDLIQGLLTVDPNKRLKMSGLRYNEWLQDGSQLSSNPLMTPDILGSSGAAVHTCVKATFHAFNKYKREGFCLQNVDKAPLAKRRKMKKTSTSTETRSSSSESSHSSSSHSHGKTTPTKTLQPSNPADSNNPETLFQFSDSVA
Test [4] concerns the target T2, Tyrosine-protein kinase Mer (Homo sapiens) (UniProt Q12866).
T2 sequence (whole entry): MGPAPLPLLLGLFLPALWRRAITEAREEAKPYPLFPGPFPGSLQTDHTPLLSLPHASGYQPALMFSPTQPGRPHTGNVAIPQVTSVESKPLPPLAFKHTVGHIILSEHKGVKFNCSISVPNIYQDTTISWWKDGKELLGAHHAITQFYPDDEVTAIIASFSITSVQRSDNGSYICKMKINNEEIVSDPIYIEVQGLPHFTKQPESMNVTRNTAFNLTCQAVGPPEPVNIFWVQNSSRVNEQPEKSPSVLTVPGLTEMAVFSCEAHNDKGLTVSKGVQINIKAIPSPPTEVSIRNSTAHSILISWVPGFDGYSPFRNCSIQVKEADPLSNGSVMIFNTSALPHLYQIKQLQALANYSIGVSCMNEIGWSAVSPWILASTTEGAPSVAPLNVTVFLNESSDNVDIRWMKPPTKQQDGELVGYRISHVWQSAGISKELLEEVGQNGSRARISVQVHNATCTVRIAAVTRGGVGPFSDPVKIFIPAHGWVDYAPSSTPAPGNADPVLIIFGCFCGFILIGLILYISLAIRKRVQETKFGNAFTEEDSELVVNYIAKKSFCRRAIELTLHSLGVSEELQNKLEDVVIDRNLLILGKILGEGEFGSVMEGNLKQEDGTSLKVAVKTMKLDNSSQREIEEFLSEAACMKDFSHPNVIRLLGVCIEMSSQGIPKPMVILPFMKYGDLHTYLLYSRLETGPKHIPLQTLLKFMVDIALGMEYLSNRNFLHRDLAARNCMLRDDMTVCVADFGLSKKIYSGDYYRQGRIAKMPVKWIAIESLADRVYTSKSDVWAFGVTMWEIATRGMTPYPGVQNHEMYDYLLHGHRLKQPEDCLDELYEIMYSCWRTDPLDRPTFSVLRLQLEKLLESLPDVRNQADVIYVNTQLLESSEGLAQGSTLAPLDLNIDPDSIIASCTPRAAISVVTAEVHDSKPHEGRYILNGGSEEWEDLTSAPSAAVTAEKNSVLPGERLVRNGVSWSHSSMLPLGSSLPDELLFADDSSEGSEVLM
As to the kind of experiment: Inhibition of human c-MER at 18.6 nM by HotSpot assay relative to control.

The target in test [5] is Mitogen-activated protein kinase kinase kinase 10 (Homo sapiens) (UniProt Q02779). As to the kind of experiment: Inhibition of human MAP3K10 at 18.6 nM by HotSpot assay relative to control.
Chain of Mitogen-activated protein kinase kinase kinase 10 (Homo sapiens) (Q02779 whole entry, looked up): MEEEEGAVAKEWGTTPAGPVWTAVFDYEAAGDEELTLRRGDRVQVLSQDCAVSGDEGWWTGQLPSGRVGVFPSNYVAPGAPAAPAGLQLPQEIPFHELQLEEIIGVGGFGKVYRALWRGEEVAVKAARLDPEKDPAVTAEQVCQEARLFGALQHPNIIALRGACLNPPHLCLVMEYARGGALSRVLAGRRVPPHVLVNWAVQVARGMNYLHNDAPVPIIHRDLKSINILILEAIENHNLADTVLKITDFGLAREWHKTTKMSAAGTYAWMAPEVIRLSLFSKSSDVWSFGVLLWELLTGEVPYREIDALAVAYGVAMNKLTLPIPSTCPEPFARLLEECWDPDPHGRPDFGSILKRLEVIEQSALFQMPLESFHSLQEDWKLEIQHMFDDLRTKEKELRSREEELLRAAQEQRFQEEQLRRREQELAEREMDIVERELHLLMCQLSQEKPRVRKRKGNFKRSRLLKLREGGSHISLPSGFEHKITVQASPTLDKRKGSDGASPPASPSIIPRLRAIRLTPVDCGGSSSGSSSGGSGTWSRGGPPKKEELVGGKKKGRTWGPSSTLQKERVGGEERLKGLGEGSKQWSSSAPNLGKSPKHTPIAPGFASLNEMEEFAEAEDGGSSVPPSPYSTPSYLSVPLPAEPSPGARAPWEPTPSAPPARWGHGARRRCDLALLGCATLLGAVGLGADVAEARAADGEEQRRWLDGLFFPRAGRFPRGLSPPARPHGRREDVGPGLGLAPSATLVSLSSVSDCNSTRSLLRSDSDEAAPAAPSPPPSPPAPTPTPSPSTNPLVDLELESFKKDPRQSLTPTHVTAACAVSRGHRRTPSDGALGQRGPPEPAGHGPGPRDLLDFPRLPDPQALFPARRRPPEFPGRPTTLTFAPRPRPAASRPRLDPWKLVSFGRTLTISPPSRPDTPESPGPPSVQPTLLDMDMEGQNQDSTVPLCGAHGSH
Test [6] has as its target Serine/threonine-protein kinase pim-1 (Homo sapiens) (UniProt P11309). As to the kind of experiment: Inhibition of human PIM1 at 1.82 nM by HotSpot assay relative to control.
For test [7], the target named is Serine/threonine-protein kinase PAK 4 (Homo sapiens) (UniProt O96013). Nature of the test: Inhibition of human PAK4 at 1.82 nM by HotSpot assay relative to control.
Chain of Serine/threonine-protein kinase PAK 4 (Homo sapiens) (O96013 whole entry, looked up): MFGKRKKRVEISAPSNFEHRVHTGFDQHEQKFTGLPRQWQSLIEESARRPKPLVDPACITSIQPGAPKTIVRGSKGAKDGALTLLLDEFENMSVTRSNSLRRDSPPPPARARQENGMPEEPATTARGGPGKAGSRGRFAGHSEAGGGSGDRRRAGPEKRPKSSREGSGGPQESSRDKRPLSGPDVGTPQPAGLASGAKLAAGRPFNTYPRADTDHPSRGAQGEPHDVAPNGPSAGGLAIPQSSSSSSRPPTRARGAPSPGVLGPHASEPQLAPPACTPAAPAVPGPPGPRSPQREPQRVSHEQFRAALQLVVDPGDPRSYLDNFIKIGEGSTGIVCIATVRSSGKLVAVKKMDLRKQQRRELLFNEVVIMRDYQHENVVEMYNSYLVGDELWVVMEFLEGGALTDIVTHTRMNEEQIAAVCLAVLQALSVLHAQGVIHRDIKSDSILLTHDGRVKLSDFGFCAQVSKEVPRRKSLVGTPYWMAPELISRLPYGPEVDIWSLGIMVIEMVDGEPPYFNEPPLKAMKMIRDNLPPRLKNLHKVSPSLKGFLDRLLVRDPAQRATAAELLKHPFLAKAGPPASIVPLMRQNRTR
Test [8] concerns the target Non-receptor tyrosine-protein kinase TYK2 (Homo sapiens) (UniProt P29597). As to the kind of experiment: Inhibition of human TYK2 at 1.82 nM by HotSpot assay relative to control.
Test [9] concerns the target T3, Tyrosine-protein kinase ITK/TSK (Homo sapiens) (UniProt Q08881).
T3 sequence (whole entry): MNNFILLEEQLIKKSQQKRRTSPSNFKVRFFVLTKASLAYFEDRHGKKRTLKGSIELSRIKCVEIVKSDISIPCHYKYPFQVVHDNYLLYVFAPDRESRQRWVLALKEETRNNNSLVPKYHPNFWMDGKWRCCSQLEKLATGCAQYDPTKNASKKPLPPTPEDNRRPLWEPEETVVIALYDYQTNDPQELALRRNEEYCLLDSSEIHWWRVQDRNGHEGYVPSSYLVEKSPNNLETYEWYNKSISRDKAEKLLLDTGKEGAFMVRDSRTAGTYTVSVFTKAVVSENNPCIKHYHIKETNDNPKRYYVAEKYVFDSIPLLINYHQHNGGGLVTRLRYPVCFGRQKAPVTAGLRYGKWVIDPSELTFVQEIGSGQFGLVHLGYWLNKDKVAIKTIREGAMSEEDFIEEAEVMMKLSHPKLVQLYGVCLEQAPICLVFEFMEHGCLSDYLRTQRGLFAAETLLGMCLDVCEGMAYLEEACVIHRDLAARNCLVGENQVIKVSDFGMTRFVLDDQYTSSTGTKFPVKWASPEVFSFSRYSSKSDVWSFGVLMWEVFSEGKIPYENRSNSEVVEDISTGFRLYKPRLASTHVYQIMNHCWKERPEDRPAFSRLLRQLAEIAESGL
Nature of the test: Inhibition of human ITK at 1.82 nM by HotSpot assay relative to control.

Chain of Non-receptor tyrosine-protein kinase TYK2 (Homo sapiens) (P29597 whole entry): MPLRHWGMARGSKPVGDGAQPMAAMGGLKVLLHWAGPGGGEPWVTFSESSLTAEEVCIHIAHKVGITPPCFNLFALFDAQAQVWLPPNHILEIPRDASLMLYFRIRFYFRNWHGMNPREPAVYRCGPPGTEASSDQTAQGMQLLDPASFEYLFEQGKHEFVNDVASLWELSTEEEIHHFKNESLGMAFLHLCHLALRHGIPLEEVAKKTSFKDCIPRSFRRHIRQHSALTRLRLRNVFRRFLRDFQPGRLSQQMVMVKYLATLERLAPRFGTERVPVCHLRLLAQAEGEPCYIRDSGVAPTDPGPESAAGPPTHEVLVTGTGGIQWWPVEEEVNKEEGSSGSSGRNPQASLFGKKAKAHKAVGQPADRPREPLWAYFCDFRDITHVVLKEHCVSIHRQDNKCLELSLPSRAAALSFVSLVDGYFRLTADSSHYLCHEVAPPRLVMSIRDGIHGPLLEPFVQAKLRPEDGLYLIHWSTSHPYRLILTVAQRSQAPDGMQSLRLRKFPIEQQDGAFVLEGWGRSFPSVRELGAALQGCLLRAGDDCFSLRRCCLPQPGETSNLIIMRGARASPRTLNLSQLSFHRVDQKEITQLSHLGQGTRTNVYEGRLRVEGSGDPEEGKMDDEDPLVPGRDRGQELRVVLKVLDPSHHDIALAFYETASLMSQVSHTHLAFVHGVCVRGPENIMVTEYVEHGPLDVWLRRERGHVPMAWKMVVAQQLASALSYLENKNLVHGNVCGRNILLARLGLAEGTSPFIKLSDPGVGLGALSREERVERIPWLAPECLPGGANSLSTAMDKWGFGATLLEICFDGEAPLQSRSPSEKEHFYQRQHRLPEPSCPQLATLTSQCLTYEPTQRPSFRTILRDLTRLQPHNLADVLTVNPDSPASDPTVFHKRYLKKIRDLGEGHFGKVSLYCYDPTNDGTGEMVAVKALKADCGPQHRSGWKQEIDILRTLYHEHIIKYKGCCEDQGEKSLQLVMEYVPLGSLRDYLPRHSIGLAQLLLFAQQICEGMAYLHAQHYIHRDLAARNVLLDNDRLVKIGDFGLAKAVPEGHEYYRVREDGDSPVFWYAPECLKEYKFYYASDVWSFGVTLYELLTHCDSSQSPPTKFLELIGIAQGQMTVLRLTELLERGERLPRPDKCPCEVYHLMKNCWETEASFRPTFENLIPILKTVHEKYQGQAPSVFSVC
Chain of Serine/threonine-protein kinase pim-1 (Homo sapiens) (P11309 whole entry, looked up): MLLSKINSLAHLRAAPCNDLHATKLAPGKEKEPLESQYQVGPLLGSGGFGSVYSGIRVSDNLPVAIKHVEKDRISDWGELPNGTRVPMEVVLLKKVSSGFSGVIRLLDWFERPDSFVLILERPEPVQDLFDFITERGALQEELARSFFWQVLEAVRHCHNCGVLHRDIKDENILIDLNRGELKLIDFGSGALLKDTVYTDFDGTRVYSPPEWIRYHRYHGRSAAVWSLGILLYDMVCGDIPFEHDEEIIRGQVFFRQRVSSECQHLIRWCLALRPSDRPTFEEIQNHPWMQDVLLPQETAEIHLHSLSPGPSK
Chain of Casein kinase I isoform alpha (Homo sapiens) (P48729 2-337 limits assumed): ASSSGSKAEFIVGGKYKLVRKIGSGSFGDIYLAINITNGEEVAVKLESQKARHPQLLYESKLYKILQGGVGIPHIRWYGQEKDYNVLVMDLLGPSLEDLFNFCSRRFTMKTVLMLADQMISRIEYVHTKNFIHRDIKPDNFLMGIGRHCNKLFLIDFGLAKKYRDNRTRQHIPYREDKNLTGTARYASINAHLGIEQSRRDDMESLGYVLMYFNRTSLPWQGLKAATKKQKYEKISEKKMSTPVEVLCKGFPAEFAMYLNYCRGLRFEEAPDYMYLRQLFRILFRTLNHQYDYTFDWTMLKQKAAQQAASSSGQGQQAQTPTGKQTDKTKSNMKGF

With `C[C@]1(O)C[C@@H](c2nc(-c3ccc4ccc(-c5ccccc5)nc4c3)c3c(N)nccn32)C1`, the inhibition in test [1] was 4.32%; in test [2], -3.52%; in [3], -5.75%; in [4], -0.54%; in test [5], -0.06%.
In the case of `C[C@@]1(C(=O)Nc2ccc(F)nc2)CCCN1c1nc(Nc2cc(C3CC3)n[nH]2)c2cccn2n1`, the inhibition in test [6] was -5.96%; in test [7], -3.15%; in test [8], 1.02%; in [9], -7.19%.
